# Values of other authors as cited in patent US20110039804A1, “Composition of Risedronate and Vitamin D3” (LANDSTEINER SCIENTIFIC, S.A. de C.V., priority 2006, published 2011).
# Where two headings read alike, the source gives them in different places.
# Tests used:
# [1] = tested on: patients with Paget's disease
# [2] = Paget's disease, 35 mg daily for two months
smiles,measurement,setting,value
CC(O)(P(=O)(O)O)P(=O)(O)O [etidronate],Patients with normalized serum alkaline phosphatase concentration,"[1]; Paget's disease, control group, etidronate 400 mg/day for 6 months",11%
"O=P(O)(O)C(O)(Cc1cccnc1)P(=O)(O)O [risedronate, 3-pyridil-1-hydroxyethylyden-1,1-bisphosphonic acid]",deoxypyridinoline/urinary creatinine ratio,[1]; [2],Significantly reduced
same,hydroxyproline/urinary creatinine ratio,[1]; [2],Significantly reduced
same,new fractures,"[1]; Paget's disease, 35 mg daily for two months, x-rays before and after 6 months",no new fractures
same,Patients with normalized serum alkaline phosphatase concentration,"[1]; Paget's disease, daily dose of 35 mg risedronate for two months",77%
same,dimension of lithic lesions in the axial and appendicular skeleton,"[1]; Paget's disease, x-rays before and after 6 months of treatment",Reduced
same,Patients staying on biochemical remission,[1]; during the 18 months following the two-month treatment,Fifty-three
same,average distribution volume in a state of balance,humans,6.3 L/kg
same,Tmax,"single oral administration, studied range 2.5 mg to 30 mg single dose",approximately 1 hour
O=P([O-])(O)C(O)(Cc1cccnc1)P(=O)(O)O.[Na+] [sodium risedronate],systemic metabolism,in vivo,no evidence of systemic metabolism
same,effect of food on oral bioavailability,tablet administered with food,reduces
same,mid oral bioavailability,"tablet, oral",0.63%
